# Read-outs that look alike come from different tables or passages of the source.
# Test: Single ascending oral dose study in healthy volunteers: plasma pharmacokinetics
# Format: in vivo, human
# Settings: human, plasma, oral; for concentration at 48 h: 48 Hours Postdose; for concentration at 72 h: 72 Hours Postdose; for concentration at 6 h: 6 Hours Postdose; for concentration at 12 h: 12 Hours Postdose; for concentration at 24 h: 24 Hours Postdose
# From the text: This example describes the first-in-human study of Compound I. Based on its mechanism of action, Compound I may offer a targeted therapy for patients with DCM caused by genetic or nongenetic mechanisms. The study was a randomized, double-blind, placebo-controlled, sequential group, single-ascending (oral) close study in healthy subjects aged 18-55 years. Eight dosing cohorts, each comprising eight healthy subjects, were enrolled. Within each cohort, subjects were randomized 6:2 to Compound I:placebo.
# Subjects were resident at the clinical site for up to 5 days and 4 nights, from Day −1 (the day before dosing) to Day 4, and received a single dose of Compound I or placebo on Day 1. ECG telemetry was initiated 1 hour preclose and continued through 48 hours postclose (Day 3). Any subject with a preclose resting HR≥80 beats per minute was considered ineligible and not treated. […] Subjects returned for a safety follow-up visit 7 days (±1 day) after dosing.
# All randomized study subjects received either Compound I or matching placebo as a single oral dose after a fasting period of at least 6 hours. Compound I drug substance is a crystalline, free-base, synthetic molecule with a molecular weight of 435.4 g/mol.
# Compound I was provided as a powder for oral suspension. Placebo was provided as calcium carbonate powder. Both treatments were closed orally as a suspension. The suspension was made using Ora-Plus® suspending vehicle (Perrigo) and a cherry syrup flavoring vehicle (Humco), mixed 50% to 50%. The suspension was followed by approximately 100 mL water. The suspension was made up within 14 days from the time in which it was closed which was consistent with the stability data on the suspension. The suspension was made up so the volume administered to the subjects who received Compound I was the same at 20 mL.
# Each subject received a close according to the cohort in which they were enrolled. Cohorts were enrolled sequentially, with each cohort receiving an escalated dose of Compound I. The closes administered were 3 mg, 10 mg, 25 mg, 50 mg, 100 mg, 175 mg, 350 mg, and 525 mg, respectively.
# The concentrations of Compound I in human plasma and urine were quantitated by high performance liquid chromatography with tandem mass spectrometric detection (LC MS/MS) (Biological sample analysis study report Alturas AD17-726). Plasma samples were extracted by protein precipitation with acetonitrile containing internal standard MYK-5654. The calibration curves were linear over concentration range of 0.500 to 1000 ng/mL with a lower limit of quantification (LLOQ) of 0.500 ng/mL.
# The PK Population included all subjects who received Compound I. Blood samples were collected for PK assessments. The actual timing of the samples may have been modified and/or up to an additional 2 samples may have been requested by the SRC after review of the data from previous cohorts. It was important that PK sampling occurred as closely as possible to the scheduled time (±10%). Both blood and urine samples were used for PK assessments.
# In addition, for subjects who received placebo, a single plasma sample near the predicted tmax of Compound I was evaluated to confirm the lack of circulating Compound I. Plasma concentration data for Compound I was summarized using descriptive statistics, including mean, standard deviation (SD), median, minimum, and maximum values, and percent coefficient of variation. Other PK parameters included (but were not limited to) Cmax, tmax, AUC, t1/2, and MRT. Additionally, the apparent terminal-phase terminal half-life was calculated. The close proportionality of AUC and Cmax was explored.
# [1] = 10 mg, 10 mg, read-out: Plasma concentration, Median
# [2] = 25 mg, 25 mg, read-out: Plasma concentration, Geometric Mean
# [3] = 25 mg, 25 mg, read-out: Plasma concentration, Mean
# [4] = 25 mg, 25 mg, read-out: Plasma concentration, Median
# [5] = 50 mg, 50 mg, read-out: Plasma concentration, Geometric Mean
# [6] = 50 mg, 50 mg, read-out: Plasma concentration, Mean
# [7] = 50 mg, 50 mg, read-out: Plasma concentration, Median
structure (smiles),measurement,setting,value
"Cn1cc(S(=O)(=O)[C@@](C)(F)C2CCN(C(=O)Nc3ccon3)CC2)c(C(F)F)n1 [Compound I, (R)-4-(1-((3-(difluoromethyl)-1-methyl-1H-pyrazol-4-yl)sulfonyl)-1-fluoroethyl)-N-(isoxazol-3-yl)piperidine-1-carboxamide]",concentration at 48 h,[1],15.4 ng/mL
same,concentration at 72 h,"10 mg, 10 mg, read-out: Plasma concentration, Geometric Mean",4.5 ng/mL
same,concentration at 72 h,"10 mg, 10 mg, read-out: Plasma concentration, Mean",4.93 ng/mL
same,concentration at 72 h,[1],4.01 ng/mL
same,AUC(0-t),"10 mg, read-out: AUC0-24, Geometric Mean",2120 ng·h/mL
same,AUC(0-t),"10 mg, read-out: AUC0-24, Mean",2140 ng·h/mL
same,AUC(0-t),"10 mg, read-out: AUC0-24, Median",2250 ng·h/mL
same,AUC(0-t),"10 mg, read-out: AUC0-48, Geometric Mean",2980 ng·h/mL
same,AUC(0-t),"10 mg, read-out: AUC0-48, Mean",3030 ng·h/mL
same,AUC(0-t),"10 mg, read-out: AUC0-48, Median",3190 ng·h/mL
same,AUC(0-t),"10 mg, read-out: AUC0-last, Geometric Mean",3280 ng·h/mL
same,AUC(0-t),"10 mg, read-out: AUC0-last, Mean",3350 ng·h/mL
same,AUC(0-t),"10 mg, read-out: AUC0-last, Median",3420 ng·h/mL
same,AUC(0-inf),"10 mg, read-out: AUC0-∞, Geometric Mean",3350 ng·h/mL
same,AUC(0-inf),"10 mg, read-out: AUC0-∞, Mean",3410 ng·h/mL
same,AUC(0-inf),"10 mg, read-out: AUC0-∞, Median",3480 ng·h/mL
same,Cmax,"10 mg, read-out: Cmax, Geometric Mean",138 ng/mL
same,Cmax,"10 mg, read-out: Cmax, Mean",139 ng/mL
same,Cmax,"10 mg, read-out: Cmax, Median",146 ng/mL
same,half-life,"10 mg, read-out: Half-Life Lambda Z, Geometric Mean (converted)",13.2 h
same,half-life,"10 mg, read-out: Half-Life Lambda Z, Mean (converted)",13.4 h
same,half-life,"10 mg, read-out: Half-Life Lambda Z, Median (converted)",12.9 h
same,MRT,"10 mg, read-out: Mean Residence Time, Geometric Mean",21.1 h
same,MRT,"10 mg, read-out: Mean Residence Time, Mean",21.2 h
same,MRT,"10 mg, read-out: Mean Residence Time, Median",20.1 h
same,Tmax,"10 mg, read-out: Tmax, Geometric Mean",4.8 h
same,Tmax,"10 mg, read-out: Tmax, Mean",4.85 h
same,Tmax,"10 mg, read-out: Tmax, Median",5 h
same,Vd/F,"10 mg, read-out: Vz/F, Geometric Mean",57.1 L
same,Vd/F,"10 mg, read-out: Vz/F, Mean",58.5 L
same,Vd/F,"10 mg, read-out: Vz/F, Median",55.8 L
same,concentration at 6 h,[2],281 ng/mL
same,concentration at 6 h,[3],286 ng/mL
same,concentration at 6 h,[4],286 ng/mL
same,concentration at 12 h,[2],205 ng/mL
same,concentration at 12 h,[3],211 ng/mL
same,concentration at 12 h,[4],223 ng/mL
same,concentration at 24 h,[2],114 ng/mL
same,concentration at 24 h,[3],118 ng/mL
same,concentration at 24 h,[4],124 ng/mL
same,concentration at 48 h,[2],33.3 ng/mL
same,concentration at 48 h,[3],35.8 ng/mL
same,concentration at 48 h,[4],35.5 ng/mL
same,concentration at 72 h,[2],8.4 ng/mL
same,concentration at 72 h,[3],9.78 ng/mL
same,concentration at 72 h,[4],8.51 ng/mL
same,AUC(0-t),"25 mg, read-out: AUC0-24, Geometric Mean",4550 ng·h/mL
same,AUC(0-t),"25 mg, read-out: AUC0-24, Mean",4650 ng·h/mL
same,AUC(0-t),"25 mg, read-out: AUC0-24, Median",4850 ng·h/mL
same,AUC(0-t),"25 mg, read-out: AUC0-48, Geometric Mean",6320 ng·h/mL
same,AUC(0-t),"25 mg, read-out: AUC0-48, Mean",6500 ng·h/mL
same,AUC(0-t),"25 mg, read-out: AUC0-48, Median",6890 ng·h/mL
same,AUC(0-t),"25 mg, read-out: AUC0-last, Geometric Mean",6920 ng·h/mL
same,AUC(0-t),"25 mg, read-out: AUC0-last, Mean",7160 ng·h/mL
same,AUC(0-t),"25 mg, read-out: AUC0-last, Median",7420 ng·h/mL
same,AUC(0-inf),"25 mg, read-out: AUC0-∞, Geometric Mean",7050 ng·h/mL
same,AUC(0-inf),"25 mg, read-out: AUC0-∞, Mean",7290 ng·h/mL
same,AUC(0-inf),"25 mg, read-out: AUC0-∞, Median",7570 ng·h/mL
same,Cmax,"25 mg, read-out: Cmax, Geometric Mean",298 ng/mL
same,Cmax,"25 mg, read-out: Cmax, Mean",304 ng/mL
same,Cmax,"25 mg, read-out: Cmax, Median",313 ng/mL
same,half-life,"25 mg, read-out: Half-Life Lambda Z, Geometric Mean (converted)",13.1 h
same,half-life,"25 mg, read-out: Half-Life Lambda Z, Mean (converted)",13.3 h
same,half-life,"25 mg, read-out: Half-Life Lambda Z, Median (converted)",12.7 h
same,MRT,"25 mg, read-out: Mean Residence Time, Geometric Mean",20.6 h
same,MRT,"25 mg, read-out: Mean Residence Time, Mean",20.8 h
same,MRT,"25 mg, read-out: Mean Residence Time, Median",20.1 h
same,Tmax,"25 mg, read-out: Tmax, Geometric Mean",4.64 h
same,Tmax,"25 mg, read-out: Tmax, Mean",4.67 h
same,Tmax,"25 mg, read-out: Tmax, Median",5 h
same,Vd/F,"25 mg, read-out: Vz/F, Geometric Mean",67.3 L
same,Vd/F,"25 mg, read-out: Vz/F, Mean",68.6 L
same,Vd/F,"25 mg, read-out: Vz/F, Median",66.5 L
same,concentration at 6 h,[5],424 ng/mL
same,concentration at 6 h,[6],431 ng/mL
same,concentration at 6 h,[7],420 ng/mL
same,concentration at 12 h,[5],317 ng/mL
same,concentration at 12 h,[6],322 ng/mL
same,concentration at 12 h,[7],297 ng/mL
same,concentration at 24 h,[5],175 ng/mL
same,concentration at 24 h,[6],178 ng/mL
same,concentration at 24 h,[7],174 ng/mL
same,concentration at 48 h,[5],49.5 ng/mL
same,concentration at 48 h,[6],51.9 ng/mL
same,concentration at 48 h,[7],57.4 ng/mL
same,concentration at 72 h,[5],13.5 ng/mL
same,concentration at 72 h,[6],15.2 ng/mL
same,concentration at 72 h,[7],18.8 ng/mL
same,AUC(0-t),"50 mg, read-out: AUC0-24, Geometric Mean",7210 ng·h/mL
same,AUC(0-t),"50 mg, read-out: AUC0-24, Mean",7300 ng·h/mL
same,AUC(0-t),"50 mg, read-out: AUC0-24, Median",6730 ng·h/mL
same,AUC(0-t),"50 mg, read-out: AUC0-48, Geometric Mean",9930 ng·h/mL
same,AUC(0-t),"50 mg, read-out: AUC0-48, Mean",10100 ng·h/mL
same,AUC(0-t),"50 mg, read-out: AUC0-48, Median",9500 ng·h/mL
same,AUC(0-t),"50 mg, read-out: AUC0-last, Geometric Mean",11100 ng·h/mL
same,AUC(0-t),"50 mg, read-out: AUC0-last, Mean",11200 ng·h/mL
same,AUC(0-t),"50 mg, read-out: AUC0-last, Median",11200 ng·h/mL
same,AUC(0-inf),"50 mg, read-out: AUC0-∞, Geometric Mean",11200 ng·h/mL
same,AUC(0-inf),"50 mg, read-out: AUC0-∞, Mean",11300 ng·h/mL
same,AUC(0-inf),"50 mg, read-out: AUC0-∞, Median",11200 ng·h/mL
same,Cmax,"50 mg, read-out: Cmax, Geometric Mean",490 ng/mL
same,Cmax,"50 mg, read-out: Cmax, Mean",500 ng/mL
same,Cmax,"50 mg, read-out: Cmax, Median",470 ng/mL
same,half-life,"50 mg, read-out: Half-Life Lambda Z, Geometric Mean (converted)",13.4 h
same,half-life,"50 mg, read-out: Half-Life Lambda Z, Mean (converted)",13.6 h
same,half-life,"50 mg, read-out: Half-Life Lambda Z, Median (converted)",13.8 h
same,MRT,"50 mg, read-out: Mean Residence Time, Geometric Mean",20.8 h
same,MRT,"50 mg, read-out: Mean Residence Time, Mean",21 h
same,MRT,"50 mg, read-out: Mean Residence Time, Median",21.5 h
same,Tmax,"50 mg, read-out: Tmax, Geometric Mean",4.66 h
same,Tmax,"50 mg, read-out: Tmax, Mean",4.69 h
same,Tmax,"50 mg, read-out: Tmax, Median",5 h
same,Vd/F,"50 mg, read-out: Vz/F, Geometric Mean",86.6 L

# From patent US20220265629A1, “TREATMENT OF SYSTOLIC DYSFUNCTION AND HEART FAILURE WITH REDUCED EJECTION FRACTION WITH THE COMPOUND (R)-4-(1-((3-(DIFLUOROMETHYL)-1-METHYL-1H-PYRAZOL-4-YL)SULFONYL)-1-FLUOROETHYL)-N-(ISOXAZOL-3-YL)PIPERIDINE-1-CARBOXAMIDE” (MyoKardia, Inc., priority 2019, published 2022)
